In PMC5708649, “A novel Porphyromonas gingivalis enzyme: An atypical dipeptidyl peptidase III with an ARM repeat domain” (PLoS ONE, 2017):
Where a SMILES comes first, the peptide text is derived from it. Where no end group is shown, it is not given here. The star is where a group is joined. AMC = Cc1cc(=O)oc2cc(N*)ccc12; βNA = c1ccc2cc(N*)ccc2c1

Key:
[1] = biological target: E433A variant of PgDPP III (Porphyromonas gingivalis, UniProt Q7MX92, E433A); assay: biochemical; assay type: binding
PgDPP III = assay: Substrate specificity for PgDPP III, dipeptidyl-2NA substrates; assay type: biochemical, Porphyromonas gingivalis; details: for Relative hydrolysis rate: standard colorimetric assay, 37°C, pH 8.0, 50 mM Tris-HCl (I = 0.01), 100 μM CoCl2, Arg-Arg-2NA listed as 100; for substrate preference / hydrolysis rate (in words): dipeptidyl-2NA substrates
Experimental: DPP III activity was determined by a standard colorimetric assay described previously using Arg-Arg-2-naphthylamide (Arg2-2NA) and Arg-Arg-7-amido-4-methylcoumarin (Arg2-AMC) as substrates, at 37°C and pH 8.0, in 50 mM Tris-HCl buffer (I = 0.01) containing 100 μM CoCl2. […] The kinetic parameters were determined from the initial reaction rates, using a nonlinear regression program (GraphPad Prism version 5.04; GraphPad, La Jolla, CA, USA).
Cloning, expression, and purification of the recombinant proteins was performed as described in the Materials and methods section. Enzyme activity was assayed using a set of synthetic dipeptide-2-naphthylamide substrates as described previously. Full-length PgDPP III and the DPP III fragment (a. acids 1–679) were purified to apparent homogeneity according to SDS-PAGE, with estimated molecular weights of 102000 and 78000, respectively, which was in agreement with their predicted molecular masses (Fig 1A). We cloned and attempted to express three C-terminal fragments of different sizes. Only one (amino acids 648–886) was detected on SDS-PAGE. However, it could not be purified as all expressed protein was in insoluble inclusion bodies. This problem was not solved by attempts to yield soluble protein by refolding from inclusion bodies.

[2] = test system: putative DPP III from P. gingivalis strain ATCC 33277; details: recombinant protein of gene PGN_1645; cited from earlier work
Text: (§1) Dipeptidyl peptidases of P. gingivalis have been the subject of extensive research because these exopeptidases liberate dipeptides from the amino-end of their natural substrates, and P. gingivalis is known to utilize dipeptides preferentially, instead of free amino acids, as the source of energy. Until now, beside DPP IV, which is a proven virulence factor, three other DPPs were reported: DPP5, DPP7 and DPP11 [67–69]. They are all serine peptidases, localized in the periplasm, but differ in their substrate specificity.

[3] = test system: gingipain null-mutant KDP136 cells; details: compared to wild-type P. gingivalis ATCC 33277; cited from earlier work
Text: as §1

[4] = test system: Full length PgDPP III (1–886 aa); assay type: biochemical, Porphyromonas gingivalis; details: for kcat/Km: full length, pH 8.0, 100 μM CoCl2, enzyme 0.5–1 nM; for kcat/Km of PgDPP III, fold lower than human DPP III: human DPP III data ref 70
[5] = test system: DPP III fragment (1–679 aa); assay: Kinetic analysis / specific activity of the DPP III fragment; assay type: biochemical, Porphyromonas gingivalis; details: for kcat/Km: DPP III fragment, pH 8.0, 100 μM CoCl2, enzyme 40–100 nM; for kcat/Km / Km / kcat: 26°C; for Km / kcat: fluorimetric, pH 8.0 Tris-HCl (ionic strength 0.01M), 100 μM CoCl2, enzyme 40–100 nM, mean of at least two independent experiments ± SD
[6] = fluorimetric, 26°C, pH 8.0 Tris-HCl (ionic strength 0.01M), 100 μM CoCl2, enzyme 0.5–1 nM, mean of at least two independent experiments ± SD
[7] = DPP III fragment vs full length PgDPP III
[8] = Arg2-2NA, yeast enzyme data ref 70

Chain of E433A variant of PgDPP III (Q7MX92 whole entry E433A): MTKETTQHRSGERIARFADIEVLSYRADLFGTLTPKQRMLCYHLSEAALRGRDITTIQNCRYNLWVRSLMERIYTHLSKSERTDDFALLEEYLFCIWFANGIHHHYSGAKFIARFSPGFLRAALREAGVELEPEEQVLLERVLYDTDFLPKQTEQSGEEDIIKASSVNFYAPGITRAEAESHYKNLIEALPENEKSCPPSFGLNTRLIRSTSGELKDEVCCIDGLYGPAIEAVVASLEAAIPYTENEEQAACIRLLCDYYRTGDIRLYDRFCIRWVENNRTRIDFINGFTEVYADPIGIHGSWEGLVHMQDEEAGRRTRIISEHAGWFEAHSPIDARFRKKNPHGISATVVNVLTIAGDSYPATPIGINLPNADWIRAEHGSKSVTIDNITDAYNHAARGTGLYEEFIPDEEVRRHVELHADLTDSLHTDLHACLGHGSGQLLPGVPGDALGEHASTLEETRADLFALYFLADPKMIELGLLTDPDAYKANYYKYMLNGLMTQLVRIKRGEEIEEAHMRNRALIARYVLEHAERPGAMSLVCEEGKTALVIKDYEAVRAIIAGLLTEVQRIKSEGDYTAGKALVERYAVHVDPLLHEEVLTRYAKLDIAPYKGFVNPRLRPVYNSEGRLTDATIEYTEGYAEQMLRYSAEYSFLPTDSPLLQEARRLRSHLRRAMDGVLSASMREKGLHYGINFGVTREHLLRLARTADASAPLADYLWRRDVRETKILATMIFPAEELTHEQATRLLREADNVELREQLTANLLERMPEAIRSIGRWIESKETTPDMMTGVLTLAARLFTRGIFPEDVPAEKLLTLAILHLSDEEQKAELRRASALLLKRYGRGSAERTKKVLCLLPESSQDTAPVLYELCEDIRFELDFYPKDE

Compound | Kd [1] [µM] | Relative hydrolysis rate (PgDPP III) [%] | kcat [4, 6] [s⁻¹] | kcat/Km ([4]; 26°C) [M⁻¹ s⁻¹] | kcat/Km of PgDPP III, fold lower than human DPP III [4] [fold] | Km increase when C-terminal domain was removed [5, 7] [fold] | reduction in catalytic efficiency when C-terminal domain was removed [5, 7] [fold] | kcat/Km [5] [M⁻¹ s⁻¹] | Km [5] [µM] | kcat [5] [s⁻¹] | other results
CC[C@H](C)[C@H](NC(=O)[C@H](Cc1ccc(O)cc1)NC(=O)[C@@H](NC(=O)[C@H](CCCNC(=N)N)NC(=O)[C@@H](N)CC(=O)O)C(C)C)C(=O)N[C@@H](Cc1cnc[nH]1)C(=O)N1CCC[C@H]1C(=O)N[C@@H](Cc1ccccc1)C(=O)O [angiotensin II] | 0.9 ± 0.12 | – | – | – | – | – | – | – | – | – | –
NC(N)=NCCCC(NC(=O)c1ccccc1)C(=O)Nc1ccc2ccccc2c1 (stereo not shown) [BANA] | – | 0 | – | – | – | – | – | – | – | – | –
Cc1cc(=O)oc2cc(NC(=O)[C@H](CCCNC(=N)N)NC(=O)[C@@H](N)CCCNC(=N)N)ccc12 [Arg-Arg-AMC, Arg-Arg-7-amido-4-methylcoumarin] (H-Arg-Arg-{AMC}) | – | – | 0.29 ± 0.11 | 113280 | 26 | 4 | 470 | 241 | 9.97 ± 0.44 | 0.0024 ± 0.0014 | activity among dipeptidyl-AMC substrates (in words) [2]: highest activity; hydrolysis by mutant cells (in words) [3]: defects in Arg-Arg-AMC hydrolysis; kcat reduction when C-terminal domain was removed [5, 7]: 120 fold
N=C(N)NCCC[C@H](NC(=O)[C@@H](N)CCCNC(=N)N)C(=O)Nc1ccc2ccccc2c1 [Arg-Arg-2NA, Arg-Arg-2-naphthylamide] (H-Arg-Arg-βNA) | – | 100 | 0.75 ± 0.13 | 773200 | 12 | 4 | 1050 | 732 | 4.37 ± 0.42 | 0.0032 ± 0.0005 | substrate preference / hydrolysis rate (in words) (PgDPP III; listed as Arg2-2NA): preference for Arg2-2NA; substrate preference / hydrolysis rate (in words) (PgDPP III; listed as diarginyl-2NA): PgDPP III prefers diarginyl-2NA; Km decrease, PgDPP III vs yeast counterpart [4, 8]: 12 fold; kcat increase, PgDPP III vs yeast counterpart [4, 8]: 4.2 fold; kcat/Km of full-length PgDPP III, fold higher than yeast counterpart [4, 8]: 50 fold; Km and kcat compared to B. thetaiotaomicron DPP III (in words) ([4]; BtDPP III data ref 24): similarities in Km and kcat values; Km [4, 6]: 0.97 ± 0.16 µM; catalytic efficiency, Arg-Arg-2NA fold higher than Arg-Arg-AMC ([4]; full length PgDPP III): 6.8 fold; kcat, Arg-Arg-2NA fold higher than Arg-Arg-AMC ([4]; full length PgDPP III): 2.6 fold; specific activity of DPP III fragment, fold lower than full-length protein ([5]; hydrolysis of Arg2-2NA, vs full-length PgDPP III): 250 fold
CC[C@H](C)[C@H](N)C(=O)N[C@H](C(=O)N[C@@H](Cc1ccc(O)cc1)C(=O)N1CCC[C@H]1C(=O)N[C@@H](Cc1c[nH]c2ccccc12)C(=O)O)C(C)C [IVYPW] | 9.35 ± 0.73 | – | – | – | – | – | – | – | – | – | –
VVYPW [tynorphin] | 7.3 ± 0.83 | – | – | – | – | – | – | – | – | – | –
